{
  "source": "patent US20090324737A1",
  "about": "“Antimicrobial And Sporicidal Composition” (priority 2002, published 2009)",
  "tested_on": "Bacillus subtilis spores",
  "assay": "Sporicidal activity against Bacillus subtilis spore suspension (cfu pour-plate count vs distilled water controls)",
  "format": "cell-based",
  "conditions": "spore suspension diluted 1:100 into composition",
  "experimental": "Spore suspensions were prepared by streaking standard agar plates with Bacillus subtilis and then incubating the plates for 48-72 hours at 37° C. The resulting bacteria and their spores were scraped from the plates and suspended by agitation in a 50% ethanol-water solution for four hours in order to lyse the vegetative cells. The spores were collected by centrifugation, washed three times and then suspended in 50% ethanol-water, resulting in a spore titer of 10^9 spores/mL. […] After treatment, the spore suspensions were diluted in distilled water and duplicate aliquots from each dilution were pour-plated on tripticase soy agar. Total colony-forming units (cfu) were counted after incubation at 37° C. for 24 hours. Sporicidal activity was directly proportional to the reduction of cfu compared to the distilled water controls.\nTest results from representative compositions are summarized in Table 1 and the associated graph of the data (FIG. 2). In addition, test data for exposure to 0.1% L-alanine in the absence of sporicidal agents is included.",
  "data": [
    {"smiles": "C[C@H](N)C(=O)O", "note": "[L-alanine]", "values": [
      {"measurement": "Test results of Spore-inactivating Compositions vs. Exposure Time (cfu compared to distilled water controls)", "setting": "exposure time 0.00 hrs", "result": 100.0, "unit": "%"},
      {"measurement": "Test results of Spore-inactivating Compositions vs. Exposure Time (cfu compared to distilled water controls)", "setting": "exposure time 0.25 hrs", "result": 106.0, "unit": "%"},
      {"measurement": "Test results of Spore-inactivating Compositions vs. Exposure Time (cfu compared to distilled water controls)", "setting": "exposure time 0.50 hrs", "result": 111.0, "unit": "%"},
      {"measurement": "Test results of Spore-inactivating Compositions vs. Exposure Time (cfu compared to distilled water controls)", "setting": "exposure time 1.00 hrs", "result": 113.0, "unit": "%"},
      {"measurement": "Test results of Spore-inactivating Compositions vs. Exposure Time (cfu compared to distilled water controls)", "setting": "exposure time 4.00 hrs", "result": 116.0, "unit": "%"}
    ]}
  ]
}
